Laboratory results: paper PMC4330465 (Journal of Computer-Aided Molecular Design, 2014)
Counter-ions that a name gives are not always drawn.

Molecular target: T1, Recombinant Homo sapiens AChE (Homo sapiens, UniProt P22303)
T1 construct: made in house
T1 sequence (P22303 32-614): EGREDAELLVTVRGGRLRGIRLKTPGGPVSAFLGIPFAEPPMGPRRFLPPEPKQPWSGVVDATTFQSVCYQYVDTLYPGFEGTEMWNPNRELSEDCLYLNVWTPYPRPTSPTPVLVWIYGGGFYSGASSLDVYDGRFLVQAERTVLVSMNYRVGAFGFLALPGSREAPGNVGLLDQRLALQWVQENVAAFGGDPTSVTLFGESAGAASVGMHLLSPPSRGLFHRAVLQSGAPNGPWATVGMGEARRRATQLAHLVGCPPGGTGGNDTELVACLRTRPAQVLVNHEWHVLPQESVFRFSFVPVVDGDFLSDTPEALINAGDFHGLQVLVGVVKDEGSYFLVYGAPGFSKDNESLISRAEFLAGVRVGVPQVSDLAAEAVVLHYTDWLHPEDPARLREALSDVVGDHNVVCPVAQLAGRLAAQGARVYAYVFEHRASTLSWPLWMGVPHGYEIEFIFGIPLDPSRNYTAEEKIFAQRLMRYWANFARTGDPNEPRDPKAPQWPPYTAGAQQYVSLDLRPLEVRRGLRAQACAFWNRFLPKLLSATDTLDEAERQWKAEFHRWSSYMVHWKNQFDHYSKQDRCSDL
Assay: not given
Conditions: test set Set3 (Table S15); cited from earlier work
For CCN(CC)CCNS(=O)(=O)c1cccc(OC)c1 [compound 60], the IC50 is given as 10 µM.

Molecular target: T1, Recombinant Homo sapiens AChE
Assay: biochemical
Format: biochemical
Conditions: test sets Set1 and Set2 (Table S15), synthesized and biologically evaluated here
Procedure: The training set of 18 compounds was experimentally evaluated for their ability to inhibit the enzymatic activity of AChE (Table 1 and Online Resource 1 for experimental details).
Reco mbinant Homo sapiens AChE was expressed according to previously described methods [ 6,7]. The enzymatic activit y wa s measured usi ng t he Ell ma n assa y [ 8] adapted to a 96-well for mat. The final assay volume was 200 µ L a nd all measurements were performed in 0.2 mM 5,5’-D ithiobis(2-nitrobenzoic acid) and 1 mM acethylthioc holine iodide in 0.1 M phosphate buffer pH 8.0. All measurements were perfor med in triplicates and the data was fitted to a (log)i nhibit or vs. response four parameters equation using GraphPad Prism (5.0). T he obtained IC50-values were recalculated to pIC50 according to pIC50=-log(IC50) in molar (M) concentration.
Work on O=C(COc1ccccc1Cl)Nc1ccc(CN2CCCCC2)cc1 [compound 40] yielded an IC50 of 0.6 µM. O=C(CCc1ccc(Cl)cc1Cl)Nc1ccc(CN2CCCCC2)cc1 [compound 42] showed an IC50 of 0.7 µM. In the case of O=[N+]([O-])c1ccccc1S(=O)(=O)NCC[n+]1ccsc1 [compound 30], the IC50 is reported as 12 µM. Compound CCN(CC)Cc1ccc(NC(=O)COc2cc(C)ccc2C)cc1 [compound 41] has an IC50 of 8.1 µM. With Cc1ccc(C(=O)NCC[n+]2ccccc2)cc1[N+](=O)[O-] [compound 28] the IC50 was 10 µM. Compound O=C(COc1ccccc1)Nc1ccc(CN2CCCCC2)cc1 [compound 39] has an IC50 of 1.3 µM. O=C(NCC[n+]1ccsc1)c1cc2cc([N+](=O)[O-])ccc2s1 [compound 31] showed an IC50 of 2.6 µM. For Cc1cc(C)c(OCC(=O)Nc2ccc(CN3CCCCC3)cc2)c(Cl)c1 [compound 38], the IC50 was 1.3 µM. O=C(COc1ccc(Cl)cc1)Nc1ccc(CN2CCCCC2)cc1 [compound 37] gave an IC50 of 0.6 µM. For Cc1ccc(C(=O)NCCC[n+]2ccccc2)cc1[N+](=O)[O-] [compound 27], the IC50 was 4.9 µM. Cc1ccc(C(=O)NCCCN(C)C)cc1[N+](=O)[O-] [compound 29] showed an IC50 of 19 µM.

Same assay, conditions: training set; triplicates; pH 8.0
Compound O=C(Cc1ccc(C(F)(F)F)cc1)NCCN1CCCCC1 [compound 10, N-[2-(Piperidin-1-yl)-ethyl] -2-(4-trifluoromethyl-phenyl) -acetamide] has an IC50 of 323 µM. O=S(=O)(Cc1ccc(C(F)(F)F)cc1)NCCC[n+]1ccccc1 [compound 15] gave an IC50 of 22.2 µM. Cc1ccc(S(=O)(=O)NCCN(C)C)cc1[N+](=O)[O-] [compound 4] gave an IC50 of 69.5 µM. O=C(NCCC[n+]1ccccc1)c1sc2ccccc2c1Cl [compound 14, 1-(3-[(3-Chloro-benzo[b]thiophen-2-carbonyl)-amino] -propyl)-pyridinium chloride] gave an IC50 of 6.6 µM. In the case of O=S(=O)(Cc1ccc(Cl)cc1)NCCCN1CCCCC1 [compound 2], the IC50 is reported as 445 µM. COc1ccc(N2Cc3ccccc3C2=O)cc1S(=O)(=O)NCCCN(C)C [compound 8] gave an IC50 of 12 µM. Compound O=C(Cc1ccc(Cl)cc1)NCCCN1CCOCC1 [compound 3] has an IC50 of over 1000 µM. For O=C(NCCN1CCNCC1)c1sc2ccccc2c1Cl [compound 16], the IC50 was 109 µM. CN(C)CCCNC(=O)c1sc2ccccc2c1Cl [compound 9, 3-Chloro-benzo[b]thiophene-2-N-(3-dimethylamino-propyl)-carboxamide hydrochlor ide] gave an IC50 of 67.7 µM. Work on O=C(NCCN1CCOCC1)c1ccc(-c2ccc(Cl)cc2)o1 [compound 11, 5-(4-Chlorophenyl)-N-(2-morpholinoethyl)furan-2-carboxamide] yielded an IC50 of 2430 µM. CCN(CC)CCCNC(=O)c1ccc(C)c([N+](=O)[O-])c1 [compound 6] gave an IC50 of 12.8 µM. Cc1ccc(S(=O)(=O)NCCCN2CCCCC2)cc1[N+](=O)[O-] [compound 5] showed an IC50 of 101 µM. With O=C(Cc1ccc(Cl)cc1)NCC[n+]1ccccc1 [compound 13, 1-(2-[2-(4 -Chloro-phenyl)-acetylamino]-ethyl)-pyridinium bromide] the IC50 was 25 µM. Compound O=S(=O)(Cc1ccc(C(F)(F)F)cc1)NCCCN1CCNCC1 [compound 17] has an IC50 of 4200 µM. In the case of O=C(NCCCN1CCNCC1)c1ccc(-c2ccc(Cl)cc2)o1 [compound 18], the IC50 is reported as 136 µM. Work on CCN(CC)CCCNC(=O)c1ccc(-c2ccc(Cl)cc2)o1 [compound 12, 5-(4-Chloro-phenyl)-furan-2-N-[3-(diethylamino)-propyl]-carboxamide hydrochloride] yielded an IC50 of 78 µM. Compound CCN(CC)CCNS(=O)(=O)Cc1ccc(Cl)cc1 [compound 1] has an IC50 of 13 µM. Work on COc1ccc(N2Cc3ccccc3C2=O)cc1S(=O)(=O)NCCN1CCOCC1 [compound 7] yielded an IC50 of 4250 µM.
